{"source": "patent US9199981B2", "about": "(NOVARTIS AG, priority 2011, dated 2015)", "note": "pIC50: −log10 of the molar value."}
{"target": "c-kit (Homo sapiens (Human), UniProt P10721)", "sequence (P10721 26-976)": "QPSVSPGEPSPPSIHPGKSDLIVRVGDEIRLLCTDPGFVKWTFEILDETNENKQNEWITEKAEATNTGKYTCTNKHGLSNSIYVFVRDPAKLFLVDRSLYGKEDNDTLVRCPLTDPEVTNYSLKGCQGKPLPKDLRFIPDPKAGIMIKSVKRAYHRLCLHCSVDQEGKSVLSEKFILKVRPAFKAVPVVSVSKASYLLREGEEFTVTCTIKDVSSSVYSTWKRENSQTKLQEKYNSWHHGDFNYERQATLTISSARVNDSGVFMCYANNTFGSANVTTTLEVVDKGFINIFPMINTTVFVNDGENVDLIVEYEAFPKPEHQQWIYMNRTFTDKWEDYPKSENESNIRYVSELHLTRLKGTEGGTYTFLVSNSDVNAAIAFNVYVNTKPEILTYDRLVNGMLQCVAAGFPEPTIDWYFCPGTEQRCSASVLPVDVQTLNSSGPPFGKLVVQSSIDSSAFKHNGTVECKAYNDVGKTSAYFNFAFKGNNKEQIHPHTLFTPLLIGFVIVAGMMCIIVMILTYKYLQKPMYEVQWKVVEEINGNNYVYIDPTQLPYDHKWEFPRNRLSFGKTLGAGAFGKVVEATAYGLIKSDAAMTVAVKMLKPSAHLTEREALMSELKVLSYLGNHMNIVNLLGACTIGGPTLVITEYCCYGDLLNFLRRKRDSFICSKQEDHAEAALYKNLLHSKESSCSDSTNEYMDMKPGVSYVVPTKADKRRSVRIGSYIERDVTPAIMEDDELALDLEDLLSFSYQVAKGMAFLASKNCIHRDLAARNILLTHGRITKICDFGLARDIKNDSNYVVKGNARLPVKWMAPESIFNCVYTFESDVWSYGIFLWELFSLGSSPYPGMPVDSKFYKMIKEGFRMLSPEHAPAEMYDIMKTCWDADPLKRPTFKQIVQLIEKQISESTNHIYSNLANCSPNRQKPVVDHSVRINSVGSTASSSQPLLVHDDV", "assay": "Mo7e cell proliferation assay (SCF dependent proliferation)", "assay_type": "cell-based", "details": "Mo7e cells stimulated with human recombinant SCF, 48 hours, 1% FBS", "protocol": "(§1) Compounds of Formula (I) and Formula (II) provided herein were assayed to measure their capacity to inhibit c-kit and PDGFR kinases using the appropriate assay described below: c-Kit inhibition was evaluated using the Mo7e cell proliferation assay, and PDGFR inhibition was evaluated using the Rat A10 cell proliferation assay and the Human TG/HA-VSMC cell proliferation assay.\n(§2) Mo7e Cell Proliferation Assay\n(§3) The compounds of Table 1 and Table 2 were tested for inhibition of SCF dependent proliferation using human Mo7e cells which endogenously express c-kit in a 384 well format. […] After 48 hours of incubation at 37° C., cell viability was measured by adding 25 uL of CellTiter Glo (Promega) to the cells and the luminescence was measured by a CLIPR CCD camera (Molecular Devices).\n(§4) The IC50 value is given as that concentration of the test compound in question that provoke a response halfway between the baseline and maximum responses."}
{"smiles": "Cc1ccc(-c2noc(C3(C(F)(F)F)CC3)n2)cc1NC(=O)c1cnc2ccccn12", "note": "[F119]", "pIC50": 6.79}
{"smiles": "Cc1ccc(-c2noc(C3CC4(CC(=O)C4)C3)n2)cc1NC(=O)c1cnc2ccccn12", "note": "[F75, N-(2-methyl-5-(5-(6-oxospiro[3.3]heptan-2-yl)-1,2,4-oxadiazol-3-yl)phenyl)imidazo[1,2-a]pyridine-3-carboxamide]", "pIC50": 7.77}
{"smiles": "Cc1ccc(-c2noc(C3CC(O)(C(F)(F)F)C3)n2)cc1NC(=O)c1cnc2ccccn12", "note": "(centres unmarked) [F25, N-(5-(5-(3-hydroxy-3-(trifluoromethyl)cyclobutyl)-1,2,4-oxadiazol-3-yl)-2-methylphenyl)imidazo[1,2-a]pyridine-3-carboxamide]", "pIC50": 7.89}
{"smiles": "Cc1ccc(-c2noc(C3CC(=O)C3)n2)cc1NC(=O)c1cnc2ccccn12", "note": "[F121]", "pIC50": 6.85}
{"smiles": "Cc1ccc(-c2noc([C@H]3CC3(F)F)n2)cc1NC(=O)c1cnc2ccccn12", "note": "(stereo in doubt) [F87, N-(5-(5-(2,2-difluorocyclopropyl)-1,2,4-oxadiazol-3-yl)-2-methylphenyl)imidazo[1,2-a]pyridine-3-carboxamide]", "pIC50": 7.34}
{"smiles": "Cc1ccc(-c2noc(CCC3(O)CC3)n2)cc1NC(=O)c1cnc2ccccn12", "note": "[F55a, N-(5-(5-(2-(1-hydroxycyclopropyl)ethyl)-1,2,4-oxadiazol-3-yl)-2-methylphenyl)imidazo[1,2-a]pyridine-3-carboxamide]", "pIC50": 7.04}
{"smiles": "Cc1ccc(-c2noc(C3CC(F)(F)C3)n2)cc1NC(=O)c1cnc2cc(C3CCNCC3)ccn12", "note": "[F169]", "pIC50": 6.27}
{"smiles": "Cc1ccn2c(C(=O)Nc3cc(-c4noc(C5CC5(F)F)n4)ccc3C)cnc2c1", "note": "(centres unmarked) [F165]", "pIC50": 6.97}
{"smiles": "Cc1ccc(-c2noc([C@H]3C[C@@H]3F)n2)cc1NC(=O)c1cnc2ccccn12", "note": "[F91]", "pIC50": 7.70}
{"smiles": "Cc1ccc(-c2noc(C3CC3O)n2)cc1NC(=O)c1cnc2ccccn12", "note": "(centres unmarked) [F159]", "pIC50": 6.66}
{"smiles": "COC(=O)NC1(c2nc(-c3ccc(C)c(NC(=O)c4cnc5ccccn45)c3)no2)CCC1", "note": "[F27]", "pIC50": 7.16}
{"smiles": "COCCO[C@H]1C[C@@H](c2nc(-c3ccc(C)c(NC(=O)c4cnc5ccccn45)c3)no2)C1", "note": "[F18, N-(5-(5-((1s,3s)-3-(2-methoxyethoxy)cyclobutyl)-1,2,4-oxadiazol-3-yl)-2-methylphenyl)imidazo[1,2-a]pyridine-3-carboxamide]", "pIC50": 7.60}
{"smiles": "Cc1ccc(-c2noc(C3CC4(CCCO4)C3)n2)cc1NC(=O)c1cnc2ccccn12", "note": "(centres unmarked) [F33]", "pIC50": 7.06}
{"smiles": "Cc1ccc(-c2noc(C3CC3(F)F)n2)cc1NC(=O)c1cnc2ccc(COCC(F)(F)F)cn12", "note": "(centres unmarked) [F85]", "pIC50": 7.16}
{"smiles": "Cc1ccc(-c2noc(C3CC(F)(F)C3)n2)cc1NC(=O)c1cnc2ccc(N3CCOCC3)cn12", "note": "[F81]", "pIC50": 7.59}
{"smiles": "Cc1ccc(-c2noc(C3CC(F)(F)C3)n2)cc1NC(=O)c1cnc2cc(N3CCOCC3)ccn12", "note": "[F59, N-(5-(5-(3,3-difluorocyclobutyl)-1,2,4-oxadiazol-3-yl)-2-methylphenyl)-7-morpholinoimidazo[1,2-a]pyridine-3-carboxamide]", "pIC50": 8.15}
{"smiles": "Cc1ccc(-c2noc(C3CC(F)(F)C3)n2)cc1NC(=O)c1cnc2ccc(COCCF)cn12", "note": "[F176, N-(5-(5-(3,3-difluorocyclobutyl)-1,2,4-oxadiazol-3-yl)-2-methylphenyl)-6-((2-fluoroethoxy)methyl)imidazo[1,2-a]pyridine-3-carboxamide]", "pIC50": 7.17}
{"smiles": "COC1(C(F)(F)F)CC(c2nc(-c3ccc(C)c(N(C)C(=O)c4cnc5ccccn45)c3)no2)C1", "note": "(centres unmarked) [F135]", "pIC50": 6.00}
{"smiles": "Cc1ccc(-c2noc(C3CC(O)(C(F)(F)F)C3)n2)cc1NC(=O)c1cnc2cc(F)ccn12", "note": "(centres unmarked) [F94]", "pIC50": 7.25}
{"smiles": "Cc1ccc(-c2noc(C3CC(F)(F)C3)n2)cc1NC(=O)c1cnc2ccc(-c3cnn(CCO)c3)cn12", "note": "[F41]", "pIC50": 7.96}
{"smiles": "CCON=C1CC(c2nc(-c3ccc(C)c(NC(=O)c4cnc5ccccn45)c3)no2)C1", "note": "(centres unmarked) [F14]", "pIC50": 7.92}
{"smiles": "Cc1ccc(-c2noc(C3CC(F)(F)C3)n2)cc1NC(=O)c1cnc2ccc(CN3CCOC3=O)cn12", "note": "[F154]", "pIC50": 6.44}
{"target": "c-kit (Homo sapiens (Human), UniProt P10721)", "assay": "Mo7e cell proliferation assay (SCF dependent proliferation)", "assay_type": "cell-based", "details": "Mo7e cells stimulated with human recombinant SCF, 48 hours, 20% FBS (values marked *)", "protocol": "as §1, §2, §3, §4"}
{"smiles": "Cc1ccc(-c2noc(C3CCC(=O)C3)n2)cc1NC(=O)c1cnc2ccccn12", "note": "(centres unmarked) [F2]", "pIC50": 7.24}
